Source: PMC9351623 (Chem, 2022)

Tests used:
TrxR1 [1] = biological target: T1, TrxR1 (Homo sapiens, UniProt Q16881); assay: Cellular quantitative HTS; assay type: cell-based; conditions: for pIC50 comparison between the two vinylsulfones: despite ca. 1.1 LogP difference; for activity in the cellular RX1 screen: hits classed up to 20 μM
T1 sequence (Q16881 1-499 isoform Q16881-5): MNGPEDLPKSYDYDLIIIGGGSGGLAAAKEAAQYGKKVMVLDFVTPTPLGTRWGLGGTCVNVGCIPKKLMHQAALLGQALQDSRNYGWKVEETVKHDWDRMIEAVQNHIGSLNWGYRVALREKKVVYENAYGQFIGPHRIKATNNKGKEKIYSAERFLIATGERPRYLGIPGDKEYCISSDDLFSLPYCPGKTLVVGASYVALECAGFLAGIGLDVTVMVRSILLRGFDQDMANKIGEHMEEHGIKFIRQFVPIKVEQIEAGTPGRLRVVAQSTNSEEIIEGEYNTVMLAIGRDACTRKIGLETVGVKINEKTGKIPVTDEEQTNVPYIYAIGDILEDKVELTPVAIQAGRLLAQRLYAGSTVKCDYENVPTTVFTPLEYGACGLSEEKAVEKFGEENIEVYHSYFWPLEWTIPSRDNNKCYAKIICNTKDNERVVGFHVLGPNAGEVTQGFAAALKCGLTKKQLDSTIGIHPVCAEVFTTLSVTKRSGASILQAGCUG

TrxR1 [2] = biological target: T1, TrxR1; conditions: cited from earlier work
TrxR = biological target: T2, TrxR (Homo sapiens, UniProt Q16881); assay: Cellular probe signal after chemical inhibition of TrxR; assay type: cell-based
T2 sequence (Q16881 1-499 isoform Q16881-5): T1 sequence (Q16881 1-499 isoform Q16881-5)

Cc1ccc(S(=O)(=O)/C=C/C#N)cc1 [BAY 11–7082]
pIC50 comparison between the two vinylsulfones (TrxR1 [1]): no change

CC(C)(C)c1ccc(S(=O)(=O)/C=C/C#N)cc1 [BAY 11–7085]
pIC50 comparison between the two vinylsulfones (TrxR1 [1]): no change

CN(N=O)c1cc(O)ccc1O [Dephostatin]
potency loss in cells (ratio of cell-free to cellular potency) (TrxR1 [1]; cellular RX1 qHTS versus cell-free qHTS of ref 67): > 10 fold

Oc1ccc2ccccc2c1SSc1c(O)ccc2ccccc12 [IPA-3]
activity in the cellular RX1 screen (TrxR1 [1]): active
activity in the enzymatic (cell-free) TrxR screen (TrxR1 [2]): inactivity

COc1ccc([N+](=O)[O-])c(S(=O)(=O)c2ccc(Cl)cc2)n1 [TRi-1]
effect of TrxR inhibitor on cellular RX1 signal (TrxR): efficiently suppressed

OC[C@H]1O[C@H]([S-])[C@H](O)[C@@H](O)[C@@H]1O.[Au+] [aurothioglucose]
pIC50 (potency) lower than its ester prodrug auranofin (TrxR1 [1]): 10 fold

C=CCN1CCc2c(cc(O)c(O)c2Cl)C(c2ccccc2)C1 (centres unmarked) [chloro-APB]
activity in the cellular RX1 screen (TrxR1 [1]): active
activity in the enzymatic (cell-free) TrxR screen (TrxR1 [2]): inactivity

O=c1c(O)c(-c2cc(O)c(O)c(O)c2)oc2cc(O)cc(O)c12 [myricetin]
apparent potency relative to the reference inhibitor TRi-1 (TrxR1 [1]): ≤ 3%

O=C1CSC(=S)N1 [rhodanine]
apparent potency relative to the reference inhibitor TRi-1 (TrxR1 [1]): ≤ 3%

CC(=O)c1c(O)c(C)c(O)c(Cc2c(O)c3c(c(C(=O)/C=C/c4ccccc4)c2O)OC(C)(C)C=C3)c1O [rottlerin]
apparent potency relative to the reference inhibitor TRi-1 (TrxR1 [1]): ≤ 3%

COC[C@H]1OC(=O)c2coc3c2[C@@]1(C)C1=C(C3=O)[C@@H]2CCC(=O)[C@@]2(C)C[C@H]1OC(C)=O [wortmannin]
activity in the cellular RX1 screen (TrxR1 [1]): inactive
activity in the enzymatic (cell-free) TrxR screen (TrxR1 [2]): activity
